Where “and” joins values, the source holds several entries; their conditions need not be identical. Identical values can stand only once.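 Cells were grown in 96-well plates and exposed to each compound for 48 hours at five concentrations; endpoints were interpolated linearly between bracketing concentrations, or set to the highest concentration if not reached. The concentration for 50% growth inhibition is given as GI50. TGI denotes the concentration required for complete inhibition of growth.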 A value given as a limit tells only on which side of the number the result lay.

The subject of the first assay is HCT-15 colon. The assay is described as follows: inhibition of tumour cell growth, NCI panel, 48 h.
As to `CCN1CCC(C)OP1(=O)Cc1ccccc1` (stereo not given), the TGI was above 100 µM.

In the case of `CNC(=O)C1(N)c2ccccc2C=Cc2ccccc21`, the TGI is above 100 µM.

The compound `O=C(c1ccccc1)c1ccc2nc(-c3c(Cl)c(Cl)c(Cl)c(Cl)c3C(=O)N/N=C/c3ccc(Cl)cc3)[nH]c2c1` showed a TGI above 100 µM.

`CCc1nn(CN2CCOCC2)c(=S)n1/N=C/c1ccc(-c2ccc(Cl)cc2)o1` displayed a TGI above 100 µM.

`CCC(C=O)P1(=O)OC(C)(C)CN1C(C)(C)C` (stereo not given): the TGI is above 100 µM.

Compound `O=C(NNCC(O)COc1ccccc1)c1ccccc1` (stereo not given) registered a TGI above 100 µM.

A further assay has as its system SN12C renal. In words: inhibition of tumour cell growth, NCI panel, 48 h.
As for `CNC(=O)C1(N)c2ccccc2C=Cc2ccccc21`, the TGI is above 100 µM.

Turning to `O=C(c1ccccc1)c1ccc2nc(-c3c(Cl)c(Cl)c(Cl)c(Cl)c3C(=O)N/N=C/c3ccc(Cl)cc3)[nH]c2c1`, the TGI is above 100 µM.

In turn, `O=C(NNCC(O)COc1ccccc1)c1ccccc1` (stereo not given) returned a TGI above 100 µM.

In the case of `COC(=O)[C@@H]1CC(C(C[N+](=O)[O-])c2ccc(O[Si](C)(C)C(C)(C)C)cc2)C(=O)N1C(=O)OC(C)(C)C` (stereo not given in full), the TGI is above 100 µM.

Another assay deals with 786-0 renal. The assay is described as follows: inhibition of tumour cell growth, NCI panel, 48 h.
For the compound `CCN1CCC(C)OP1(=O)Cc1ccccc1` (stereo not given), the TGI was above 100 µM.

Take `CNC(=O)C1(N)c2ccccc2C=Cc2ccccc21`: the TGI was above 100 µM.

Regarding `O=C(c1ccccc1)c1ccc2nc(-c3c(Cl)c(Cl)c(Cl)c(Cl)c3C(=O)N/N=C/c3ccc(Cl)cc3)[nH]c2c1`, the TGI worked out at 99.6 µM.

`CCc1nn(CN2CCOCC2)c(=S)n1/N=C/c1ccc(-c2ccc(Cl)cc2)o1`: the TGI was above 100 µM.

In turn, `CCC(C=O)P1(=O)OC(C)(C)CN1C(C)(C)C` (stereo not given) yielded a TGI above 100 µM.

`O=C(NNCC(O)COc1ccccc1)c1ccccc1` (stereo not given) showed a TGI above 100 µM.

The compound `COC(=O)[C@@H]1CC(C(C[N+](=O)[O-])c2ccc(O[Si](C)(C)C(C)(C)C)cc2)C(=O)N1C(=O)OC(C)(C)C` (stereo not given in full) had a TGI above 100 µM.

The test system of the next assay is CCRF-CEM leukemia. The assay is described as follows: inhibition of tumour cell growth, NCI panel, 48 h.
In turn, `CNC(=O)C1(N)c2ccccc2C=Cc2ccccc21` displayed a TGI above 100 µM.

Consider `O=C(c1ccccc1)c1ccc2nc(-c3c(Cl)c(Cl)c(Cl)c(Cl)c3C(=O)N/N=C/c3ccc(Cl)cc3)[nH]c2c1`, for which the TGI worked out at 71.3 µM.

Regarding `O=C(NNCC(O)COc1ccccc1)c1ccccc1` (stereo not given), the TGI was above 100 µM.

`COC(=O)[C@@H]1CC(C(C[N+](=O)[O-])c2ccc(O[Si](C)(C)C(C)(C)C)cc2)C(=O)N1C(=O)OC(C)(C)C` (stereo not given in full): the TGI was above 100 µM.

Another assay has as its system SNB-75 CNS. In words: inhibition of tumour cell growth, NCI panel, 48 h.
The compound `O=C(c1ccccc1)c1ccc2nc(-c3c(Cl)c(Cl)c(Cl)c(Cl)c3C(=O)N/N=C/c3ccc(Cl)cc3)[nH]c2c1` registered a TGI above 100 µM.

Compound `CCc1nn(CN2CCOCC2)c(=S)n1/N=C/c1ccc(-c2ccc(Cl)cc2)o1` returned a TGI above 100 µM.

As to `O=C(NNCC(O)COc1ccccc1)c1ccccc1` (stereo not given), the TGI was above 100 µM.

Compound `COC(=O)[C@@H]1CC(C(C[N+](=O)[O-])c2ccc(O[Si](C)(C)C(C)(C)C)cc2)C(=O)N1C(=O)OC(C)(C)C` (stereo not given in full) displayed a TGI above 100 µM.

The next assay relates to HT29 colon. The assay is described as follows: inhibition of tumour cell growth, NCI panel, 48 h.
`CCN1CCC(C)OP1(=O)Cc1ccccc1` (stereo not given): the TGI is above 100 µM.

The compound `CNC(=O)C1(N)c2ccccc2C=Cc2ccccc21` came in with a TGI above 100 µM.

Turning to `O=C(c1ccccc1)c1ccc2nc(-c3c(Cl)c(Cl)c(Cl)c(Cl)c3C(=O)N/N=C/c3ccc(Cl)cc3)[nH]c2c1`, the TGI was above 100 µM.

`CCc1nn(CN2CCOCC2)c(=S)n1/N=C/c1ccc(-c2ccc(Cl)cc2)o1`: the TGI is above 100 µM.

The compound `CCC(C=O)P1(=O)OC(C)(C)CN1C(C)(C)C` (stereo not given) gave a TGI above 100 µM.

Compound `O=C(NNCC(O)COc1ccccc1)c1ccccc1` (stereo not given) yielded a TGI above 100 µM.

For the compound `COC(=O)[C@@H]1CC(C(C[N+](=O)[O-])c2ccc(O[Si](C)(C)C(C)(C)C)cc2)C(=O)N1C(=O)OC(C)(C)C` (stereo not given in full), the GI50 was > 100 µM and 47.8 µM; the TGI was above 100 µM.

In another assay the test system is SK-OV-3 ovarian. The assay is described as follows: inhibition of tumour cell growth, NCI panel, 48 h.
On to `CCN1CCC(C)OP1(=O)Cc1ccccc1` (stereo not given), for which the TGI is above 100 µM.

As to `CNC(=O)C1(N)c2ccccc2C=Cc2ccccc21`, the TGI is above 100 µM.

`O=C(c1ccccc1)c1ccc2nc(-c3c(Cl)c(Cl)c(Cl)c(Cl)c3C(=O)N/N=C/c3ccc(Cl)cc3)[nH]c2c1`: the TGI was above 100 µM.

Consider `CCC(C=O)P1(=O)OC(C)(C)CN1C(C)(C)C` (stereo not given), for which the TGI was above 100 µM.

Take `O=C(NNCC(O)COc1ccccc1)c1ccccc1` (stereo not given): the TGI was above 100 µM.

As for `COC(=O)[C@@H]1CC(C(C[N+](=O)[O-])c2ccc(O[Si](C)(C)C(C)(C)C)cc2)C(=O)N1C(=O)OC(C)(C)C` (stereo not given in full), the TGI was above 100 µM.

In the next assay the test system is OVCAR-4 ovarian. In words: inhibition of tumour cell growth, NCI panel, 48 h.
Compound `CCN1CCC(C)OP1(=O)Cc1ccccc1` (stereo not given) returned a TGI above 100 µM.

In turn, `CNC(=O)C1(N)c2ccccc2C=Cc2ccccc21` registered a TGI above 100 µM.

Consider `O=C(c1ccccc1)c1ccc2nc(-c3c(Cl)c(Cl)c(Cl)c(Cl)c3C(=O)N/N=C/c3ccc(Cl)cc3)[nH]c2c1`, for which the TGI is above 100 µM.

As to `CCc1nn(CN2CCOCC2)c(=S)n1/N=C/c1ccc(-c2ccc(Cl)cc2)o1`, the TGI was above 100 µM.

Compound `CCC(C=O)P1(=O)OC(C)(C)CN1C(C)(C)C` (stereo not given) displayed a TGI above 100 µM.

In the case of `O=C(NNCC(O)COc1ccccc1)c1ccccc1` (stereo not given), the TGI was above 100 µM.

`COC(=O)[C@@H]1CC(C(C[N+](=O)[O-])c2ccc(O[Si](C)(C)C(C)(C)C)cc2)C(=O)N1C(=O)OC(C)(C)C` (stereo not given in full) displayed a TGI above 100 µM.

Another assay deals with HCC-2998 colon. In words: inhibition of tumour cell growth, NCI panel, 48 h.
For `CCN1CCC(C)OP1(=O)Cc1ccccc1` (stereo not given), the TGI is above 100 µM.

Compound `CCC(C=O)P1(=O)OC(C)(C)CN1C(C)(C)C` (stereo not given) had a TGI above 100 µM.

As to `O=C(NNCC(O)COc1ccccc1)c1ccccc1` (stereo not given), the TGI is above 100 µM.

The test system of another assay is OVCAR-3 ovarian. In words: inhibition of tumour cell growth, NCI panel, 48 h.
For the compound `CCN1CCC(C)OP1(=O)Cc1ccccc1` (stereo not given), the TGI was above 100 µM.

`CNC(=O)C1(N)c2ccccc2C=Cc2ccccc21`: the TGI was above 100 µM.

As for `O=C(c1ccccc1)c1ccc2nc(-c3c(Cl)c(Cl)c(Cl)c(Cl)c3C(=O)N/N=C/c3ccc(Cl)cc3)[nH]c2c1`, the TGI is 51.5 µM.

For `CCc1nn(CN2CCOCC2)c(=S)n1/N=C/c1ccc(-c2ccc(Cl)cc2)o1`, the TGI was above 100 µM.

The compound `CCC(C=O)P1(=O)OC(C)(C)CN1C(C)(C)C` (stereo not given) gave a TGI of 81.3 µM.

In turn, `O=C(NNCC(O)COc1ccccc1)c1ccccc1` (stereo not given) registered a TGI above 100 µM.

(Values after PubChem BioAssay (NCI).)
